According to patent US20250115577A1, “BCL-2 Inhibitors” (Eil Therapeutics, Inc., priority 2021, published 2025):

Columns and labels:
MOLT-4 cells = assay: Cell viability assay (CellTiter-Glo), MOLT-4; type: cell-based; details: Homo sapiens, 72 h, 3 days of incubation
Protocol: (§1) Example D. Cell Viability Assays (Cell lines HEK293, RS4-11, MOLT-4)
(§2) Cells were seeded at a density of 4000 cells per well in the 384-well clear bottom plate (Greiner Cat #781090) to the 45 μL total volume of either DMEM (PanEco, Cat #C420, for HEK293) or RPMI (PanEco, Cat #C330, for other cell lines) with 10% FBS(HyClone Cat #SV30160.03). Prior to adding compounds, the HEK293 cells were allowed to adhere overnight at 37° C. and 5% CO2. The 500× compounds solutions in DMSO(Sigma Cat #D2650) were dispersed into a 384-well compound plate (Diamond Well Plate, Axigen, Cat #P-384-120 SQ-C—S) including only DMSO control. The 1 μL aliquots of the 500× compounds from the compound plate were added to 49 μL of culture medium in the Dilution plate (Diamond Well Plate, Axigen, Cat #P-384-120 SQ-C—S), mixed and then the 5 μL aliquts of the 10× compound solutions were transferred to cells followed by centrifugation at 100 g for 1 min. Final DMSO concentration was 0.2%. After 3 days of incubation the 10 μL aliquots of CellTiter-Glo (Promega, CAT #G7572) were added to the cells, plate was centrifuged at 100 g for 1 min and the luminescence was measured on the CLARIOstar Plus (BMG LABTECH) instrument.
(§3) Instrumentation: CLARIOstar Plus (BMG LABTECH); Biomek FX for liquid handling (Beckman Coulter).

RS4-11 cells = assay: Cell viability assay (CellTiter-Glo), RS4-11; type: cell-based; details: Homo sapiens, RS4-11, 72 h, 3 days of incubation
Protocol: as §1, §2, §3

BCL-2 = BCL-2 (Homo sapiens (Human), UniProt P10415); assay: BCL-2 TR-FRET Assay (primary PPI inhibition); type: binding; details: 60 min incubation, read-out: BCL2 IC50
Summary of the method: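 His-tagged BCL-2 (3 ng) with anti-His Tb donor, dye-labeled acceptor and BCL-2 peptide ligand; compound added at 200× stock, final DMSO 0.5%. 60 min incubation, then TR-FRET read at 340 nm excitation, 620/665 nm emission, 60 µs delay, 500 µs integration.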

[1] = system: caspase-3 and -7 activities in RS4-11 cells; assay: Caspase-3/7 activation (Caspase-Glo 3/7) in RS4-11 cells; type: cell-based; details: Homo sapiens, 3.5 h, read-out: Cas-3/7 EC50
Protocol: Example E. Caspase-3/7 Activation
Assay Principle: The Caspase-Glo 3/7 Assay is homogeneous, luminescent assay that measures caspase-3 and -7 activities. The assay provides a luminogenic caspase-3/7 substrate, which contains the tetrapeptide sequence DEVD, in a reagent optimized for caspase activity.
Assay Procedure: Incubate RS4-11 (ATCC, CRL-1873) cells in the 384-well white plate (Corning, #3570) with varying concentrations of test compounds for 3.5 h in a humidified incubator at 37° C. and 5% CO2 […]. Add 15 μL of the Caspase-Glo (Promega, #8212) reagent to each well and to incubate the plate for 30 min at rt. Read on the CLARIOstar Plus (BMG LABTECH) instrument.
as §3

[2] = Cell viability assay (CellTiter-Glo), HEK293; type: cell-based; details: human, HEK293 cells, 3 days of incubation
Protocol: as §1, §2, §3

BCL-2 [G101V] = BCL-2 [G101V] (Homo sapiens (Human), UniProt P10415, G101V); assay: BCL-2 [G101V] TR-FRET Assay (primary PPI inhibition); type: binding; details: 60 min incubation, read-out: BCL2[G101V] IC50
Protocol: Example C. BCL-2 [G101V]TR-FRET Assay
The following assay concentrations and times were used: 0.22 ng/μl of BCL-2 (SinoBiological, #10195-H08E1), 5 μL of 1:100 anti-His Tb-labeled donor, 5 μL of 1:100 Dye-labeled acceptor, 5 μL of 1:40 BCL-2 Peptide Ligand (BPS Bioscience, #50223), and 2 μL of 200× test compound, with 60 min incubation time (final concentration of DMSO 0.5%). The results of the assay were read using a plate reader with the following parameters: TR FRET, 340ex/620 and 665em; 60 usec Delay; and 500 usec integration.
as §3

BCL-xL = BCL-xL (Homo sapiens (Human), UniProt Q07817); assay: BCL-xL TR-FRET Assay (primary PPI inhibition); type: binding; details: 60 min incubation, read-out: BCLxL IC50
Sequence of BCL-xL (Q07817 whole entry): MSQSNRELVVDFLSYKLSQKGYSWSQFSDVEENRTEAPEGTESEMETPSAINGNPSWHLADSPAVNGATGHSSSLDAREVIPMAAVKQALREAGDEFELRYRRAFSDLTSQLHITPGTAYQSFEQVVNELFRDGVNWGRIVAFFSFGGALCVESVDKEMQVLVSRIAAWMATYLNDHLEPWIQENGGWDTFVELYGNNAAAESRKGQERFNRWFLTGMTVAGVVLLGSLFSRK
Summary of the method: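 TR-FRET competition of His-tagged BCL-xL (10.5 ng) binding to dye-labeled peptide ligand, with anti-His Tb donor; compound added from 200× stock, 0.5% DMSO final. After 60 min incubation, read at 340 nm excitation, 620/665 nm emission, 60 µs delay, 500 µs integration.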

| Compound | CC50 (MOLT-4 cells) [nM] | CC50 (RS4-11 cells) [nM] | IC50 (BCL-2) [nM] | EC50 [1] [nM] | CC50 at 3 days [2] [nM] | IC50 (BCL-2 [G101V]) [nM] | IC50 (BCL-xL) [nM] |
| --- | --- | --- | --- | --- | --- | --- | --- |
| COc1cccc(CN(C(=O)c2cc(-c3cc(F)ccc3C(=O)N3Cc4ccccc4C[C@H]3CN3CCOCC3)n(C)c2C)c2ccc(O)cc2)c1C [Compound 52, 5-[5-fluoro-2-[(3S)-3-(morpholinomethyl)-3,4-dihydro-1H-isoquinoline-2-carbonyl]phenyl]-N-(4-hydroxyphenyl)-N-[(3-methoxy-2-methyl-phenyl)methyl]-1,2-dimethyl-pyrrole-3-carboxamide] | ≤ 5000 | ≤ 100 | ≤ 5 | 200 to 500 | > 25000 | ≤ 100 | 2000 to 5000 |
| Cc1c(C(=O)N(Cc2ccccc2C#N)c2ccc3[nH]ncc3c2)cc(-c2cc(Cl)ccc2C(=O)N2Cc3ccccc3C[C@H]2CN2CCOCC2)n1C [Compound 68, 5-[5-chloro-2-[(3S)-3-(morpholinomethyl)-3,4-dihydro-1H-isoquinoline-2-carbonyl]phenyl]-N-[(2-cyanophenyl)methyl]-N-(1H-indazol-5-yl)-1,2-dimethyl-pyrrole-3-carboxamide] | > 10000 | > 200 | 10 to 50 | > 500 | > 25000 | > 1000 | > 5000 |
| COc1cc(C(=O)N2Cc3ccccc3C[C@H]2CN2CCOCC2)c(-c2cc(C(=O)N(Cc3cccc(OC)c3C)c3ccc(O)cc3)c(C)n2C)cc1F [Compound 21, 5-[5-fluoro-4-methoxy-2-[(3S)-3-(morpholinomethyl)-3,4-dihydro-1H-isoquinoline-2-carbonyl]phenyl]-N-(4-hydroxyphenyl)-N-[(3-methoxy-2-methyl-phenyl)methyl]-1,2-dimethyl-pyrrole-3-carboxamide] | ≤ 5000 | 100 to 200 | 10 to 50 | ≤ 200 | > 25000 | 100 to 1000 | 2000 to 5000 |
| COc1cccc(CN(C(=O)c2cc(-c3cc(F)c(F)cc3C(=O)N3Cc4ccccc4C[C@H]3CN3CCOCC3)n(C)c2C)c2ccc(O)cc2)c1C [Compound 51, 5-[4,5-difluoro-2-[(3S)-3-(morpholinomethyl)-3,4-dihydro-1H-isoquinoline-2-carbonyl]phenyl]-N-(4-hydroxyphenyl)-N-[(3-methoxy-2-methyl-phenyl)methyl]-1,2-dimethyl-pyrrole-3-carboxamide] | ≤ 5000 | 100 to 200 | 10 to 50 | 200 to 500 | > 25000 | 100 to 1000 | 2000 to 5000 |
| N#Cc1ccccc1CN(C(=O)c1cc(-c2cc(Cl)ccc2C(=O)N2Cc3ccccc3C[C@H]2CN2CCOCC2)n2c1CCCC2)c1ccc(O)cc1 [Compound 3, 3-[5-chloro-2-[(3S)-3-(morpholinomethyl)-3,4-dihydro-1H-isoquinoline-2-carbonyl]phenyl]-N-[(2-cyanophenyl)methyl]-N-(4-hydroxyphenyl)-5,6,7,8-tetrahydroindolizine-1-carboxamide] | ≤ 5000 | 100 to 200 | ≤ 5 | 200 to 500 | 10000 to 25000 | ≤ 100 | > 5000 |
| COc1cccc(CN(C(=O)c2cc(-c3cc(Cl)ccc3C(=O)N3Cc4ccccc4C[C@H]3CN3CCOCC3)n3c2CCCC3)c2ccc(O)cc2)c1C [Compound 4, 3-[5-chloro-2-[(3S)-3-(morpholinomethyl)-3,4-dihydro-1H-isoquinoline-2-carbonyl]phenyl]-N-(4-hydroxyphenyl)-N-[(3-methoxy-2-methyl-phenyl)methyl]-5,6,7,8-tetrahydroindolizine-1-carboxamide] | ≤ 5000 | ≤ 100 | ≤ 5 | ≤ 200 | 10000 to 25000 | 100 to 1000 | > 5000 |
| Cc1c(C(=O)N(Cc2ccccc2C#N)c2ccc(O)cc2)cc(-c2cc(Cl)ccc2C(=O)N2Cc3ccccc3C[C@H]2CN2CCOCC2)n1C [Compound 6, 5-[5-chloro-2-[(3S)-3-(morpholinomethyl)-3,4-dihydro-1H-isoquinoline-2-carbonyl]phenyl]-N-[(2-cyanophenyl)methyl]-N-(4-hydroxyphenyl)-1,2-dimethyl-pyrrole-3-carboxamide] | 5000 to 10000 | 100 to 200 | ≤ 5 | 200 to 500 | 10000 to 25000 | ≤ 100 | ≤ 2000 |
| COc1cccc(CN(C(=O)c2cc(-c3ccc(OC(F)F)cc3C(=O)N3Cc4ccccc4C[C@H]3CN3CCOCC3)n(C)c2C)c2ccc(O)cc2)c1C [Compound 31, 5-[4-(difluoromethoxy)-2-[(3S)-3-(morpholinomethyl)-3,4-dihydro-1H-isoquinoline-2-carbonyl]phenyl]-N-(4-hydroxyphenyl)-N-[(3-methoxy-2-methyl-phenyl)methyl]-1,2-dimethyl-pyrrole-3-carboxamide] | ≤ 5000 | > 200 | 5 to 10 | > 500 | > 25000 | > 1000 | 2000 to 5000 |
| COc1cccc(CN(C(=O)c2cc(-c3cc(Cl)c(OC(F)F)cc3C(=O)N3Cc4ccccc4C[C@H]3CN3CCOCC3)n(C)c2C)c2ccc(O)cc2)c1C [Compound 36, 5-[5-chloro-4-(difluoromethoxy)-2-[(3S)-3-(morpholinomethyl)-3,4-dihydro-1H-isoquinoline-2-carbonyl]phenyl]-N-(4-hydroxyphenyl)-N-[(3-methoxy-2-methyl-phenyl)methyl]-1,2-dimethyl-pyrrole-3-carboxamide] | 5000 to 10000 | > 200 | 5 to 10 | > 500 | > 25000 | 100 to 1000 | 2000 to 5000 |
| COc1ccccc1CN(C(=O)c1cc(-c2cc(F)ccc2C(=O)N2Cc3ccccc3C[C@H]2CN2CCOCC2)n(C)c1C)c1ccc(O)cc1 [Compound 54, 5-[5-fluoro-2-[(3S)-3-(morpholinomethyl)-3,4-dihydro-1H-isoquinoline-2-carbonyl]phenyl]-N-(4-hydroxyphenyl)-N-[(2-methoxyphenyl)methyl]-1,2-dimethyl-pyrrole-3-carboxamide] | ≤ 5000 | 100 to 200 | 5 to 10 | > 500 | > 25000 | ≤ 100 | ≤ 2000 |
| COc1cccc(CN(C(=O)c2cc(-c3cc(C(F)F)c(Cl)cc3C(=O)N3Cc4ccccc4C[C@H]3CN3CCOCC3)n(C)c2C)c2ccc(O)cc2)c1C [Compound 43, 5-[4-chloro-5-(difluoromethyl)-2-[(3S)-3-(morpholinomethyl)-3,4-dihydro-1H-isoquinoline-2-carbonyl]phenyl]-N-(4-hydroxyphenyl)-N-[(3-methoxy-2-methyl-phenyl)methyl]-1,2-dimethyl-pyrrole-3-carboxamide] | ≤ 5000 | > 200 | ≤ 5 | > 500 | > 25000 | 100 to 1000 | 2000 to 5000 |
